According to publication PMC11407620, “Repurposing auranofin and meclofenamic acid as energy-metabolism inhibitors and anti-cancer drugs” (PLOS ONE, 2024):
Where two headings read alike, the source gives them in different places.

Key:
Rat Liver Mitochondria = experiment: Oxygen consumption of isolated mitochondria; assay type: biochemical; settings: for Net State 3 oxygen consumption rate / Pseudo State 4 oxygen consumption rate / RC, respiratory control / State 3 oxygen consumption rate / State 4 oxygen consumption rate / RC: Rat Liver Mitochondria
Procedure: Rat liver (RLM) and heart (RHM) mitochondria were isolated as described previously by differential centrifugation.
Respiration of AS-30D, liver and heart mitochondria (1 mg protein/mL) was assayed oxygraphically with a Clark-type O2 electrode in KME (120 mM KCl, 20 mM Mops, 1 mM EGTA) buffer pH 7.2 plus 2 mM KH2PO4, and different oxidizable substrates (as indicated in Results). For state 3 respiration, 600 nmol ADP were added. Mitochondria were incubated at 37°C with Aur and MA for 30–60 s before substrates were added. At the end of each respiratory measurement, dithionite was added to get the chemical zero oxygen signal.
Isolated mitochondria (1mg protein/mL) were incubated in KME buffer (120 mM KCl, 20 mM MOPS, 1 mM EGTA) pH 7.20 plus 2 mM KH2PO4 and the indicated oxidizable substrates. For state 3 (ADP-stimulated) respiration, 300-600 nmol ADP were added. RC, respiratory control; n=3. To get the maximal reduction of molecular oxygen (zero oxygen concentration), sodium dithionite (Na2O4S2) was added at the end of each measurement.

Breast MCF-7 cells = experiment: Cell proliferation, 24 h drug exposure; assay type: cell-based, human; settings: for IC50: Breast MCF-7 (low metastatic), 24 h, read-out: IC50 for proliferation cell rate; for TI ratio (3T3/ cancer cells): IC50 3T3 / IC50 MCF-7; for TI ratio (H9C2/cancer cells): IC50 H9C2 / IC50 MCF-7
Procedure: (§1) All metastatic (breast MDA-MB231, MDA-MB468, cervix HeLa, prostate PC3, colorectal HCT116, COLO205, glioblastoma U373), low-metastatic (breast MCF-7) cancer and non-cancer (fibroblast 3T3, cardiomyocytes H9C2) cell lines (American Type Culture Collection, Rockville, MD, USA) used in this study were cultured in Petri dishes in 20 mL of Dulbecco’s Modified Eagle’s Medium (DMEM, Sigma, MO, USA) supplemented with 10% fetal bovine serum (Biowest, Mexico) and 10,000 U penicillin/streptomycin (Sigma-Aldrich, MO, USA). […] For growth and maintenance, cells were incubated in 5% CO2/95% air at 37°C and kept until 80–90% of confluence was reached. Then, cells were harvested, washed by centrifugation and resuspended in Krebs-Ringer buffer (KR, 125 mM NaCl, 5 mM KCl, 25 mM Hepes, 1 mM MgCl2, 1 mM KH2PO4, 1.4 mM CaCl2, pH 7.4) for further use. For experimentation, cancer cells (3–5 x 10^6 cells) were cultured in DMEM (with 25 mM glucose) for 24 h in the absence of drugs. Afterwards, old-medium was replaced with fresh DMEM medium (with 25 mM glucose) in the absence (control, non-treated cells) or in the presence of logarithmic concentrations of Aur and MA for 24 h more, under the same culture conditions described above. Viability of cultured cells was determined by the trypan blue exclusion assay. The protein concentration was determined by the Lowry method.
(§2) For cell proliferation in the presence of drugs, cancer cells (20 x 10^3 cells/well) were grown in 96-well plates containing DMEM (Sigma-Aldrich) plus 10% bovine fetal serum for 24 h. Afterwards, Aur or MA (0.01, 0.1, 10 and 100 μM) were added to the cell cultures and incubated for additional 24 h. The effect of these drugs on cell proliferation was determined in 96-well plates by the MTT (3-[4,5-dimethyl-thiazol-2-yl]-2,5-diphenyltetrazolium bromide) assay. The viability of cancer cells was > 95% after treatment with drugs.

Prostate PC3 cells = experiment: Cell proliferation, 24 h drug exposure; assay type: cell-based, human; settings: for TI ratio (3T3/ cancer cells): IC50 3T3 / IC50 PC3; for TI ratio (H9C2/cancer cells): IC50 H9C2 / IC50 PC3; for IC50: Prostate PC3, 24 h, read-out: IC50 for proliferation cell rate
Procedure: as §1, §2

Colorectal HCT116 cells = experiment: Cell proliferation, 24 h drug exposure; assay type: cell-based, human; settings: for IC50: Colorectal HCT116, 24 h, read-out: IC50 for proliferation cell rate; for TI ratio (3T3/ cancer cells): IC50 3T3 / IC50 HCT-116; for TI ratio (H9C2/cancer cells): IC50 H9C2 / IC50 HCT-116
Procedure: as §1, §2

Breast MDA-MB-231 cells = experiment: Cell proliferation, 24 h drug exposure; assay type: cell-based, human; settings: for IC50: Breast MDA-MB-231, 24 h, read-out: IC50 for proliferation cell rate; for TI ratio (3T3/ cancer cells): IC50 3T3 / IC50 MDA-MB-231; for TI ratio (H9C2/cancer cells): IC50 H9C2 / IC50 MDA-MB-231
Procedure: as §1, §2

3T3 mouse fibroblasts = experiment: Cell proliferation, 24 h drug exposure (non cancer cells); assay type: cell-based; settings: 3T3 mouse fibroblasts (non cancer), read-out: IC50 for proliferation cell rate
Procedure: as §1, §2

[1] = test system: H9C2 mouse cardiomyocytes; experiment: as above; assay type: cell-based; settings: read-out: IC50 for proliferation cell rate
Procedure: as §1, §2

[2] = 5 mM Glutamate/5 mM Malate, 10 μM Aur
[3] = 5 mM Glutamate/5 mM Malate, 25 μM Aur
[4] = 5 mM Glutamate/5 mM Malate, 50 μM Aur
[5] = 5 mM Glutamate/5 mM Malate, 100 μM Aur
[6] = Succinate 0.5 mM + Rotenone 2 µM, 10 µM Aur
[7] = Succinate 0.5 mM + Rotenone 2 µM, 25 µM Aur
[8] = Succinate 0.5 mM + Rotenone 2 µM, 50 µM Aur
[9] = Succinate 0.5 mM + Rotenone 2 µM, 100 µM Aur
[10] = 5 mM Glutamate/5 mM Malate, 10 μM MA
[11] = 5 mM Glutamate/5 mM Malate, 50 μM MA

## CC(=O)OC[C@H]1O[C@@H]([S-])[C@H](OC(C)=O)[C@@H](OC(C)=O)[C@@H]1OC(C)=O.CCP(CC)CC.[Au+] [Aur, [1-(thio-κS)-β-D-glucopyranose-2,3,4,6-tetraacetyl] (triethylphosphine)-gold]
Rat Liver Mitochondria; RLM
  inhibition of state 3 respiration rates: 20–54%
Rat Liver Mitochondria; RLM, GM
  increase of state 4 respiration rates (times): 1.8–1.9 times
Rat Liver Mitochondria; [2]
  Net State 3 oxygen consumption rate: 123.5 ± 59 nmol O2 min^-1 mg protein^-1
  Pseudo State 4 oxygen consumption rate: 27.5 ± 3 nmol O2 min^-1 mg protein^-1
  RC, respiratory control: 8 ± 1
  State 3 oxygen consumption rate: 151 ± 61.5 nmol O2 min^-1 mg protein^-1
  State 4 oxygen consumption rate: 18 ± 5 nmol O2 min^-1 mg protein^-1
Rat Liver Mitochondria; [3]
  Net State 3 oxygen consumption rate: 62 nmol O2 min^-1 mg protein^-1
  Pseudo State 4 oxygen consumption rate: 27 (2) nmol O2 min^-1 mg protein^-1
  RC, respiratory control: 6 (2)
  State 3 oxygen consumption rate: 89 (2) nmol O2 min^-1 mg protein^-1
  State 4 oxygen consumption rate: 15 (2) nmol O2 min^-1 mg protein^-1
Rat Liver Mitochondria; [4]
  Net State 3 oxygen consumption rate: 48 nmol O2 min^-1 mg protein^-1
  Pseudo State 4 oxygen consumption rate: 30.5 (2) nmol O2 min^-1 mg protein^-1
  RC, respiratory control: 5.5 (2)
  State 3 oxygen consumption rate: 78.5 (2) nmol O2 min^-1 mg protein^-1
  State 4 oxygen consumption rate: 16 (2) nmol O2 min^-1 mg protein^-1
Rat Liver Mitochondria; [5]
  Net State 3 oxygen consumption rate: 25 nmol O2 min^-1 mg protein^-1
  Pseudo State 4 oxygen consumption rate: 48 (2) nmol O2 min^-1 mg protein^-1
  RC, respiratory control: 3 (2)
  State 3 oxygen consumption rate: 73 (2) nmol O2 min^-1 mg protein^-1
  State 4 oxygen consumption rate: 26 (2) nmol O2 min^-1 mg protein^-1
Rat Liver Mitochondria; [6]
  Net State 3 oxygen consumption rate: 116 (2)
  Pseudo State 4 oxygen consumption rate: 33 (2)
  RC: 5.4 (2)
  State 3 oxygen consumption rate: 150 (2)
  State 4 oxygen consumption rate: 68 (2)
Rat Liver Mitochondria; [7]
  Net State 3 oxygen consumption rate: 88 (2)
  Pseudo State 4 oxygen consumption rate: 73 (2)
  RC: 4.8 (2)
  State 3 oxygen consumption rate: 161 (2)
  State 4 oxygen consumption rate: 39.5 (2)
Rat Liver Mitochondria; [8]
  Net State 3 oxygen consumption rate: 36.5 (2)
  Pseudo State 4 oxygen consumption rate: 63.5 (2)
  RC: 2.3 (2)
  State 3 oxygen consumption rate: 95.5 (2)
  State 4 oxygen consumption rate: 40.5 (2)
Rat Liver Mitochondria; [9]
  Net State 3 oxygen consumption rate: 20 (2)
  Pseudo State 4 oxygen consumption rate: 59 (2)
  RC: 2.5 (2)
  State 3 oxygen consumption rate: 64 (2)
  State 4 oxygen consumption rate: 56 (2)
Breast MCF-7 cells
  IC50: 5 ± 0.6 µM
  TI ratio (3T3/ cancer cells): 8
  TI ratio (H9C2/cancer cells): 15
Prostate PC3 cells
  TI ratio (3T3/ cancer cells): 6
  TI ratio (H9C2/cancer cells): 12
  IC50: 6.5 ± 3.5 µM
Colorectal HCT116 cells
  IC50: 3 ± 1 µM
  TI ratio (3T3/ cancer cells): 14
  TI ratio (H9C2/cancer cells): 26
Breast MDA-MB-231 cells
  IC50: 0.8 ± 0.2 µM
  TI ratio (3T3/ cancer cells): 52
  TI ratio (H9C2/cancer cells): 97
3T3 mouse fibroblasts
  IC50: 42 ± 17 µM
[1]
  IC50: 78 ± 15 µM

## Cc1ccc(Cl)c(Nc2ccccc2C(=O)O)c1Cl [MA, Meclofenamic acid]
Rat Liver Mitochondria; [10]
  Net State 3 oxygen consumption rate: 81 (1)
  Pseudo State 4 oxygen consumption rate: 32.5 (1)
  RC: 8.6 (1)
  State 3 oxygen consumption rate: 113.5 (1)
  State 4 oxygen consumption rate: 13.5 (1)
Rat Liver Mitochondria; [11]
  Net State 3 oxygen consumption rate: 61 ± 27
  Pseudo State 4 oxygen consumption rate: 42 ± 15 (3)
  RC: 2.1 ± 0.2 (3)
  State 3 oxygen consumption rate: 102 ± 23 (3)
  State 4 oxygen consumption rate: 50 ± 17 (3)
Breast MCF-7 cells; Homo sapiens, MCF7
  IC50: > 100 µM
Breast MCF-7 cells
  TI ratio (3T3/ cancer cells): 1
  TI ratio (H9C2/cancer cells): 1
Prostate PC3 cells; Homo sapiens, PC-3
  IC50: 6 ± 3 µM
Prostate PC3 cells
  TI ratio (3T3/ cancer cells): 17
  TI ratio (H9C2/cancer cells): 17
Colorectal HCT116 cells; Homo sapiens, HCT-116
  IC50: > 100 µM
Colorectal HCT116 cells
  TI ratio (3T3/ cancer cells): 1
  TI ratio (H9C2/cancer cells): 1
Breast MDA-MB-231 cells; Homo sapiens
  IC50: 51 ± 5 µM
Breast MDA-MB-231 cells
  TI ratio (3T3/ cancer cells): 2
  TI ratio (H9C2/cancer cells): 2
3T3 mouse fibroblasts; Fibroblast
  IC50: > 100 µM
[1]
  IC50: > 100 µM
